US8735150B2, “Methods for detecting embryonic stem cells, induced pluripotent stem cells, or cells undergoing reprogramming to produce induced pluripotent stem cells” (New York University, priority 2010, dated 2014)

How the values were obtained:
mESC = assay: Flow cytometry of mESC and MEF incubated separately with rosamine hit compounds (secondary screening); type: cell-based, mouse; details: 500 nM
Experimental: FIG. 5 is a table of flow cytometry results, which show the structure-cell selectivity relationship in CDy1 analogues. The ratios of mESC to MEF fluorescence mean values obtained from flow cytometry were used for cell selectivity analysis. The cells were incubated with 500 nM of each compound for one hour and washed with phosphate buffered saline (PBS) for flow cytometry.
MEFs and mESCs were cultured in 60 mm culture dishes for 24 hours in the presence of 500 nM of hit compounds including CDy1. The cells were harvested by trypsin treatment, washed with PBS, and resuspended in PBS. The fluorescence intensity of the cells was measured with flow cytometry (BD™ LSR II) with PE-Texas Red filter (excitation at 488 nm, emission at 615 nm). The dot plot images for each cell type were overlaid using FlowJo7 (Tree Star Inc., Ashland, Oreg.). […]
For a high-throughput screening, mESC and MEF feeder cells were incubated with 280 rosamine compounds at a concentration of 500 nM in 384-well microplates. After 0.5 hours, 24 hours, and 48 hours, TRITC fluorescence and bright field images were taken using an ImageXpress^MICRO imaging system. […] As a secondary screening, mESC and MEF were incubated separately with each of the hit compounds and these were analyzed using flow cytometry (see work flow set out in FIGS. 1A-1B; results shown in FIGS. 2A-2C and FIG. 3).

differentiated mESC = assay: CDy1 staining of differentiated mESC after LIF removal; type: cell-based, mouse; details: three days culture without LIF
Text: Morphologically distinguishable differentiated cells were observed after three days culture of mESC in the absence of LIF. As shown in the center panel, most of those cells were CDy1 negative, while some other cells that retained mESC morphology were stained by the dye.
On the other hand, removing the LIF from the culture media induced mESC differentiation and it was observed that some cells were morphologically distinguishable from mESC three days later. Most of the differentiated cells were not stained by CDy1, while some other cells with mESC morphology were stained by the dye showing a similar pattern with immunocytochemical staining by Oct4 antibody (FIG. 11).

## CCCCN(CCCC)c1ccc2c(-c3cccc(CN4CCOCC4)c3)c3ccc(=N)cc-3oc2c1 [CDy1]
mESC
  higher fluorescence intensity in mESC than in MEF (ratio of mESC to MEF fluorescence mean values): 12.2 fold
mESC; mESC vs MEF
  mESC selectivity (in words): most selective for mESCs among the 20 hit compounds
Differentiated mESC
  staining of differentiated cells: not stained
